In publication PMC9486805, “Identification of a Phage Display-Derived Peptide Interacting with the N-Terminal Region of Factor VII Activating Protease (FSAP) Enables Characterization of Zymogen Activation” (ACS Chemical Biology, 2022):
“Also recorded” adds a separate entry of the source.

Molecular target: T1, pro-FSAP in human plasma (Homo sapiens, UniProt Q14520)
T1 construct: from tissue; host or cells: human hirudin or citrate plasma from healthy donors, diluted 1:12
Assay: Formation of FSAP–alpha2-antiplasmin complexes in plasma
Type: biochemical
Details: hirudin plasma 1:12, 1 h at 37 °C; NNKC9/41 0–25 μM, histones 0–25 μg/mL; three donors (Fig 4C)
Protocol: Figure 4 Comparison of different methods to measure pro-FSAP activation in plasma: (A) hirudin plasma (1:12 dilution) was incubated with histones (0–25 μg/mL), NNKC9/41, or its Ser–Ser linear control (0–25 μM) and the fluorogenic substrate turnover (Ac–Ala–Lys–Nle–Arg–AMC) was monitored. (B) From the same experiment as in (A) after 1 h incubation at 37 °C, samples were captured on anti-FSAP coated wells and the conversion of added pro-uPA to active uPA was measured by determining the turnover of the chromogenic substrate PNAPEP1344 (25 μM). (C) From the same experiment as in (A) after 1 h incubation at 37 °C, samples were captured on anti-FSAP coated wells and α2-antiplasmin antibody was used to detect the formation of FSAP−α2-antiplasmin complexes. […] In (F), the samples with MA-FSAP-570 were not analyzed since this antibody would interfere in the sandwich ELISA. […]
Human citrate plasma (0.38% w/v) or hirudin plasma (25 μg/mL Lepirudin) was obtained from five healthy donors. […] Hydrolysis of the fluorogenic substrates was measured using a Synergy HI plate reader with excitation at 320 nm and emission at 460 nm at 37 °C for 60 min. The maximal velocity was calculated from the linear part of the progress curve. […]

T1 sequence (Q14520 24-560): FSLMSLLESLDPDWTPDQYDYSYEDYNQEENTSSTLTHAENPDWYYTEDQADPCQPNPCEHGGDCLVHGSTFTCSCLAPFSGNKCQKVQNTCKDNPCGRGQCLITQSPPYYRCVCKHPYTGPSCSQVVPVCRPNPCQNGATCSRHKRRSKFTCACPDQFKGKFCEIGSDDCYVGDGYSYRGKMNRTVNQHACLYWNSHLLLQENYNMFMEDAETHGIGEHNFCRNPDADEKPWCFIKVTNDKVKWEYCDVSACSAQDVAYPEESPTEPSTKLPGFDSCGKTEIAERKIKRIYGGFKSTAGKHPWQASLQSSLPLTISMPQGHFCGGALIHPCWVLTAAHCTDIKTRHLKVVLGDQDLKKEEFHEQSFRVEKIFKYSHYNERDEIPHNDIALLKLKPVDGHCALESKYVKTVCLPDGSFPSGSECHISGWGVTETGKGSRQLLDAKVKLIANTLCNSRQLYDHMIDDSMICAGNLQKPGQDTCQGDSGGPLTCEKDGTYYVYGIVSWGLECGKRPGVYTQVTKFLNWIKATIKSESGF

CRGAMWMYKRC [NNKC9/41]
FSAP–alpha2-antiplasmin complex formation: weaker than histones; also recorded: concentration-dependent effect
